We go through 23 molecules from US9637453B2, “3-spirocyclic-6-hydroxamic acid tetralins as HDAC inhibitors” (Forma Therapeutics, Inc., priority 2015, dated 2017).

The target in assay [1] is T1, Full length human recombinant HDAC6 (Homo sapiens, UniProt Q9UBN7).
T1 construct: Full length human recombinant HDAC6 and HDAC11 proteins were expressed in baculoviral system
T1 sequence (Q9UBN7 1-1215): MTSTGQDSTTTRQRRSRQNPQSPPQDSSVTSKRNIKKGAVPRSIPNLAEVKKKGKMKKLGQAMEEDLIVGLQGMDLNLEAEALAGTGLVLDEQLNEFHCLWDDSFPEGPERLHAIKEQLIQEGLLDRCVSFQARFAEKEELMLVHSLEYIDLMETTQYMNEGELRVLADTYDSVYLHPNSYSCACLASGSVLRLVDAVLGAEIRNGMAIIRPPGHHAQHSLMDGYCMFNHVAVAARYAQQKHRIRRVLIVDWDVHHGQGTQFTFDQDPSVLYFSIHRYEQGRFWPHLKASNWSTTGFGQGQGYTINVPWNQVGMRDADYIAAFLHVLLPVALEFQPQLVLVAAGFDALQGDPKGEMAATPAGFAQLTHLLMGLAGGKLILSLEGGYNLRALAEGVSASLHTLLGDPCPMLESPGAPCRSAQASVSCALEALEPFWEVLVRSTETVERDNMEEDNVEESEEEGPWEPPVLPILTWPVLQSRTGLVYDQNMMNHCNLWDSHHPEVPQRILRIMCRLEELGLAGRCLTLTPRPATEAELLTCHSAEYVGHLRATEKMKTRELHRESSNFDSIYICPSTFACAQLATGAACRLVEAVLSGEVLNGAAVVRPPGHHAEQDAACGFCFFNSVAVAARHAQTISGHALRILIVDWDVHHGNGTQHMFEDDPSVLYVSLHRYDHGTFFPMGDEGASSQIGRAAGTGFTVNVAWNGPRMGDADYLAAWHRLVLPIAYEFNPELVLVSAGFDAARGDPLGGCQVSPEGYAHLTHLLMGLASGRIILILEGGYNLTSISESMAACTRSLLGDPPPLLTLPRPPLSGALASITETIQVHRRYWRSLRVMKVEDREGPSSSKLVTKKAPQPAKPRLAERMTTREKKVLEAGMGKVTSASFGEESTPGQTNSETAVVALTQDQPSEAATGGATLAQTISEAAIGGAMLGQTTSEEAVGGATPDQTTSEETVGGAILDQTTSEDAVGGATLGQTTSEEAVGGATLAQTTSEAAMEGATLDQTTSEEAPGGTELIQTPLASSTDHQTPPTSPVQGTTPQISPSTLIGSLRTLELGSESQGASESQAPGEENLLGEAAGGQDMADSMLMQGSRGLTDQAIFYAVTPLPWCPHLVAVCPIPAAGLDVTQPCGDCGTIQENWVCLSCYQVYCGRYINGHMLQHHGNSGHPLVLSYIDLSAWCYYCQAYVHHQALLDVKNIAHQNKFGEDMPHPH
The assay is described as follows: In vitro histone deacetylase assay, enzymatic HDAC6 (electrophoretic mobility shift assay). The format is biochemical. The note with it: 1 nM HDAC6; 2 μM peptide substrate FAM-RHKK(Ac)—NH2; 25° C.; 12 concentrations; read-out: HDAC6 Activity Range (IC50). A digest of the protocol: (§1)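 Baculovirus-expressed full-length enzymes (HDAC6 1 nM, FAM-RHKK(Ac)-NH2; HDAC11 10 nM, FAM-RHKK(tri-fluor-Ac)-NH2), 2 μM substrate, HEPES pH 7.5, 25°C, 12-point 3× dilutions. Product/substrate separated by microfluidic mobility shift after SDS quench; IC50 from 4-parameter fit, reported as +/++/+++ bins.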
(In general: In EMSA bound probe runs differently from free probe, usually more slowly.)

Assay [2] deals with T2, Full length human recombinant HDAC11 (Homo sapiens, UniProt Q96DB2).
T2 construct: Full length human recombinant HDAC6 and HDAC11 proteins were expressed in baculoviral system
T2 sequence (Q96DB2 1-347): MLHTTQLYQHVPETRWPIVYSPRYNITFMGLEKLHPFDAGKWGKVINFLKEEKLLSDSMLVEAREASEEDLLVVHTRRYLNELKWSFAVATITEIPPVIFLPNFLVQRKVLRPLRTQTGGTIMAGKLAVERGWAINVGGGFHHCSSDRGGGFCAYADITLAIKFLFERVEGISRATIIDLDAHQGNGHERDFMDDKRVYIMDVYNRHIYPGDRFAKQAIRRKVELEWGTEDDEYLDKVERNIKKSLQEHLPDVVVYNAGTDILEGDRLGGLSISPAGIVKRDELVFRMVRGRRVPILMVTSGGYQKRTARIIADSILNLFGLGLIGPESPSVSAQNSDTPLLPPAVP
Briefly: In vitro histone deacetylase assay, enzymatic HDAC11 (electrophoretic mobility shift assay). The settings on record: 10 nM HDAC11; 2 μM peptide substrate FAM-RHKK(tri-fluor-Ac)—NH2; 25° C.; 12 concentrations; read-out: HDAC11 Activity Range (IC50). It is filed as biochemical. A digest of the protocol: as §1

As usually defined, the IC50 is the midpoint of a concentration-inhibition curve. For the molecule `CN1C[C@]2(CCc3ccc(C(=O)NO)cc3C2)CC1=O` [Compound I-131, (S)—N-hydroxy-1′-methyl-5′-oxo-3,4-dihydro-1H-spiro[naphthalene-2,3′-pyrrolidine]-7-carboxamide], the half-inhibitory concentration (IC50) in assay [1] is not above 100 nM; in assay [2], more than 500 nM.
Turning to `O=C(NO)c1ccc2c(c1)C[C@@]1(CC2)CC(=O)N(c2ccccc2)C1` [Compound I-132, (S)—N-hydroxy-5′-oxo-1′-phenyl-3,4-dihydro-1H-spiro[naphthalene-2,3′-pyrrolidine]-7-carboxamide], the IC50 in assay [1] is not above 100 nM; in assay [2], more than 500 nM.
The like results for `O=C(NO)c1ccc2c(c1)C[C@]1(CC2)CC(=O)N(CC2CCC2)C1` [Compound I-133, (R)-1′-(cyclobutylmethyl)-N-hydroxy-5′-oxo-3,4-dihydro-1H-spiro[naphthalene-2,3′-pyrrolidine]-7-carboxamide] were, in that order, not above 100 nM and more than 500 nM.
The like results for `O=C(NO)c1ccc2c(c1)C[C@@]1(CC2)CC(=O)N(CC2CCC2)C1` [Compound I-134, (S)-1′-(cyclobutylmethyl)-N-hydroxy-5′-oxo-3,4-dihydro-1H-spiro[naphthalene-2,3′-pyrrolidine]-7-carboxamide] were, in that order, not above 100 nM and more than 500 nM.
Consider `COCCCN1C[C@@]2(CCc3ccc(C(=O)NO)cc3C2)CC1=O` [Compound I-135, (R)—N-hydroxy-1′-(3-methoxypropyl)-5′-oxo-3,4-dihydro-1H-spiro[naphthalene-2,3′-pyrrolidine]-7-carboxamide], for which the IC50 in assay [1] is not above 100 nM; in assay [2], more than 500 nM.
With `COCCCN1C[C@]2(CCc3ccc(C(=O)NO)cc3C2)CC1=O` [Compound I-136, (S)—N-hydroxy-1′-(3-methoxypropyl)-5′-oxo-3,4-dihydro-1H-spiro[naphthalene-2,3′-pyrrolidine]-7-carboxamide], the 50% inhibitory concentration (IC50) in assay [1] was not above 100 nM; in assay [2], more than 500 nM.
For `CC(C)CN1C[C@@]2(CCc3ccc(C(=O)NO)cc3C2)CC1=O` [Compound I-137, (R)—N-hydroxy-1′-isobutyl-5′-oxo-3,4-dihydro-1H-spiro[naphthalene-2,3′-pyrrolidine]-7-carboxamide], the half-maximal inhibitory concentration (IC50) in assay [1] is not above 100 nM; in assay [2], more than 500 nM.
Turning to `CC(C)CN1C[C@]2(CCc3ccc(C(=O)NO)cc3C2)CC1=O` [Compound I-138, (S)—N-hydroxy-1′-isobutyl-5′-oxo-3,4-dihydro-1H-spiro[naphthalene-2,3′-pyrrolidine]-7-carboxamide], the 50% inhibitory concentration (IC50) in assay [1] is not above 100 nM; in assay [2], more than 500 nM.
Take `CC(C)N1C[C@@]2(CCc3ccc(C(=O)NO)cc3C2)CC1=O` [Compound I-139, (R)—N-hydroxy-1′-isopropyl-5′-oxo-3,4-dihydro-1H-spiro[naphthalene-2,3′-pyrrolidine]-7-carboxamide]: the IC50 in assay [1] is not above 100 nM; in assay [2] it was more than 500 nM.
In the case of `CC(C)N1C[C@]2(CCc3ccc(C(=O)NO)cc3C2)CC1=O` [Compound I-140, (S)—N-hydroxy-1′-isopropyl-5′-oxo-3,4-dihydro-1H-spiro[naphthalene-2,3′-pyrrolidine]-7-carboxamide], the concentration for half-maximal inhibition (IC50) in assay [1] is not above 100 nM; in assay [2], more than 500 nM.
Consider `O=C(NO)c1ccc2c(c1)C[C@@]1(CC2)CC(=O)N(C2CC2)C1` [Compound I-141, (S)-1′-cyclopropyl-N-hydroxy-5′-oxo-3,4-dihydro-1H-spiro[naphthalene-2,3′-pyrrolidine]-7-carboxamide], for which the IC50 in assay [1] is not above 100 nM; in assay [2], more than 500 nM.
On to `CCN1C[C@@]2(CCc3ccc(C(=O)NO)cc3C2)CC1=O` [Compound I-142, (R)-1′-ethyl-N-hydroxy-5′-oxo-3,4-dihydro-1H-spiro[naphthalene-2,3′-pyrrolidine]-7-carboxamide], for which the results for the IC50 in assay [1] and in assay [2] were not above 100 nM and more than 500 nM, respectively.
The like results for `CCN1C[C@]2(CCc3ccc(C(=O)NO)cc3C2)CC1=O` [Compound I-143, (S)-1′-ethyl-N-hydroxy-5′-oxo-3,4-dihydro-1H-spiro[naphthalene-2,3′-pyrrolidine]-7-carboxamide] were, in that order, not above 100 nM and more than 500 nM.
As for `O=C(NO)c1ccc2c(c1)C[C@@]1(CC2)CC(=O)N(CC(F)(F)F)C1` [Compound I-144, (S)—N-hydroxy-5′-oxo-1′-(2,2,2-trifluoroethyl)-3,4-dihydro-1H-spiro[naphthalene-2,3′-pyrrolidine]-7-carboxamide], the values for the IC50 in assay [1] and in assay [2] were not above 100 nM and more than 500 nM, respectively.
For the molecule `O=C(NO)c1ccc2c(c1)C[C@]1(CC2)CC(=O)N(c2ccccc2)C1` [Compound I-145, (R)—N-hydroxy-5′-oxo-1′-phenyl-3,4-dihydro-1H-spiro[naphthalene-2,3′-pyrrolidine]-7-carboxamide], the half-inhibitory concentration (IC50) is not above 100 nM in assay [1] and more than 500 nM in assay [2].
The like results for `O=C(NO)c1ccc2c(c1)C[C@]1(CC2)CC(=O)N(CC2COC2)C1` [Compound I-146, (R)—N-hydroxy-1′-(oxetan-3-ylmethyl)-5′-oxo-3,4-dihydro-H-spiro[naphthalene-2,3′-pyrrolidine]-7-carboxamide] were, in that order, not above 100 nM and more than 500 nM.
With `O=C(NO)c1ccc2c(c1)C[C@@]1(CC2)CC(=O)N(CC2COC2)C1` [Compound I-147, (S)—N-hydroxy-1′-(oxetan-3-ylmethyl)-5′-oxo-3,4-dihydro-1H-spiro[naphthalene-2,3′-pyrrolidine]-7-carboxamide], the values for the IC50 in assay [1] and in assay [2] were not above 100 nM and more than 500 nM, respectively.
Regarding `O=C(NO)c1ccc2c(c1)C[C@]1(CC2)CC(=O)N(C2CC2)C1` [Compound I-148, (R)-1′-cyclopropyl-N-hydroxy-5′-oxo-3,4-dihydro-H-spiro[naphthalene-2,3′-pyrrolidine]-7-carboxamide], the half-maximal inhibitory concentration (IC50) in assay [1] was not above 100 nM; in assay [2], more than 500 nM.
The like results for `O=C(NO)c1ccc2c(c1)C[C@]1(CC2)CC(=O)N(CC(F)(F)F)C1` [Compound I-149, (R)—N-hydroxy-5′-oxo-1′-(2,2,2-trifluoroethyl)-3,4-dihydro-1H-spiro[naphthalene-2,3′-pyrrolidine]-7-carboxamide] were, in that order, not above 100 nM and more than 500 nM.
The like results for `COc1ccc(C(=O)N2CCC3(CCc4ccc(C(=O)NO)cc4O3)CC2)cc1` [II-1, N-hydroxy-1′-(4-methoxybenzoyl)spiro[chroman-2,4′-piperidine]-7-carboxamide] were, in that order, not above 100 nM and more than 500 nM.
As to `COc1ccc(S(=O)(=O)N2CCC3(CCc4ccc(C(=O)NO)cc4O3)CC2)cc1` [II-2, N-hydroxy-1′-((4-methoxyphenyl)sulfonyl)spiro[chromane-2,4′-piperidine]-7-carboxamide], the results for the 50% inhibitory concentration (IC50) in assay [1] and in assay [2] were not above 100 nM and more than 500 nM, respectively.
For `O=C(NO)c1ccc2c(c1)OC1(CC2)CCN(S(=O)(=O)C2CCCCC2)CC1` [II-3, 1′-(cyclohexylsulfonyl)-N-hydroxyspiro[chromane-2,4′-piperidine]-7-carboxamide], the half-inhibitory concentration (IC50) in assay [1] and in assay [2] was not above 100 nM throughout.
Consider `O=C(NO)c1ccc2c(c1)OC1(CC2)CCN(C(=O)Nc2ccccc2)CC1` [II-4, N7-hydroxy-N1′-phenylspiro[chroman-2,4′-piperidine]-1′,7-dicarboxamide], for which the IC50 in assay [1] is not above 100 nM; in assay [2], more than 500 nM.
